In US5217960A, “Erythromycin derivatives” (priority 1991, dated 1993):
Values after ≈ are worked out from the molar mass of the structure shown. Read-outs that look alike come from different tables or passages of the source.

How the values were obtained:
Type in all cases: cell-based
[1] = test system: STAPHYLOCOCCUS AUREUS ATCC 6538P; experiment: In vitro antibacterial activity, agar dilution MIC; settings: ATCC6538P, 24 h
[2] = test system: STAPHYLOCOCCUS AUREUS A5177; experiment: In vitro antibacterial activity, agar dilution MIC; settings: S. aureus A5177, BHI agar, 35-37° C., 20 to 24 hours, read-out: MIC
[3] = test system: STAPHYLOCOCCUS AUREUS 45; experiment: In vitro antibacterial activity, agar dilution MIC; settings: 24 h
[4] = test system: STAPHYLOCOCCUS AUREUS 642A; experiment: In vitro antibacterial activity, agar dilution MIC; settings: 24 h
[5] = test system: STAPHYLOCOCCUS AUREUS NCTC 10649; experiment: In vitro antibacterial activity, agar dilution MIC; settings: NCTC10649, 24 h
[6] = test system: STAPHYLOCOCCUS AUREUS CMX 553; experiment: In vitro antibacterial activity, agar dilution MIC; settings: 24 h
[7] = test system: STAPHYLOCOCCUS AUREUS 1775; experiment: In vitro antibacterial activity, agar dilution MIC
[8] = test system: STAPHYLOCOCCUS EPIDERMIDIS 3519; experiment: microbe, parasite or virus in culture
[9] = test system: EN[…] ATCC 8043; experiment: In vitro antibacterial activity, agar dilution MIC; settings: Enterococcus faecium, ATCC8043, 24 h
Description: (§1) Representative compounds of the present invention were assayed in vitro for antibacterial activity as follows: Twelve petri dishes containing successive aqueous dilutions of the test compound mixed with 10 ml of sterilized Brain Heart Infusion (BHI) agar (Difco 0418-01-5) were prepared. Each plate was inoculated with 1:100 (or 1:10 for slow-growing strains, such as Micrococcus and Streptococcus) dilutions of up to 32 different microorganisms, using a Steers replicator block. The inoculated plates were incubated at 35°-37° C. for 20 to 24 hours. In addition, a control plate, using BHI agar containing no test compound, was prepared and incubated at the beginning and end of each test.
(§2) An additional plate containing a compound having known susceptibility patterns for the organisms being tested and belonging to the same antibiotic class as the test compound was also prepared and incubated as a further control, as well as to provide test-to-test comparability. Erythromycin A was used for this purpose.
(§3) After incubation, each disk was read. The minimum inhibitory concentration (MIC) was defined as the lowest concentration of drug yielding no growth, a slight haze, or sparsely isolated colonies on the inoculum spot as compared to the growth control. The results of this assay, shown below in Tables 1 and 2, support the conclusion that the compounds of the invention are effective antibacterial agents.

[10] = test system: M[…] ATCC 4698; experiment: In vitro antibacterial activity, agar dilution MIC; settings: Micrococcus luteus, ATCC4698, 24 h
Description: as §1, §2, §3

[11] = test system: M[…] ATCC 9341; experiment: In vitro antibacterial activity, agar dilution MIC; settings: Micrococcus luteus, ATCC9341, 24 h
Description: as §1, §2, §3

[12] = test system: PSEUDOMONAS AERUGINOSA K799/61; experiment: In vitro antibacterial activity, agar dilution MIC
Description: as §1, §2, §3

[13] = test system: STREPTOCOCCUS BOVIS A5169; experiment: In vitro antibacterial activity, agar dilution MIC
[14] = test system: STR[…] 508; experiment: In vitro antibacterial activity, agar dilution MIC; settings: Streptococcus agalactiae, 24 h
Description: as §1, §2
(§4) After incubation, each disk was read. The minimum inhibitory concentration (MIC) was defined as the lowest concentration of drug yielding no growth, a slight haze, or sparsely isolated colonies on the inoculum spot as compared to the growth control.

[15] = test system: STR[…] EES61; experiment: In vitro antibacterial activity, agar dilution MIC; settings: Streptococcus pyogenes, 24 h
Description: as §1, §2, §4

[16] = test system: STREPTOCOCCUS PYOGENES 930 CONST; experiment: In vitro antibacterial activity, agar dilution MIC
[17] = test system: STREPTOCOCCUS PYOGENES 2548 INDUC; experiment: In vitro antibacterial activity, agar dilution MIC
[18] = test system: ESCHERICHIA COLI JUHL; experiment: microbe, parasite or virus in culture
[19] = test system: ESCHERICHIA COLI SS; experiment: In vitro antibacterial activity, agar dilution MIC
[20] = test system: ESCHERICHIA COLI DC-2; experiment: In vitro antibacterial activity, agar dilution MIC; settings: E. coli DC-2, BHI agar, 35-37° C., 20 to 24 hours, read-out: MIC
[21] = test system: ESCHERICHIA COLI H560; experiment: In vitro antibacterial activity, agar dilution MIC
[22] = test system: ESCHERICHIA COLI KNK 437; experiment: microbe, parasite or virus in culture
[23] = test system: ENTEROBACTER AEROGENES ATCC 13048; experiment: In vitro antibacterial activity, agar dilution MIC; settings: Klebsiella aerogenes, ATCC13048; E. aerogenes ATCC 13048; BHI agar, 35-37° C., 20 to 24 hours; read-out: MIC
[24] = test system: KLEBSIELLA PNEUMONIAE ATCC 8045; experiment: In vitro antibacterial activity, agar dilution MIC; settings: ATCC8045, K. pneumoniae ATCC 8045, BHI agar, 35-37° C., 20 to 24 hours, read-out: MIC
[25] = test system: PROVIDENCIA STUARTII CMX 640; experiment: microbe, parasite or virus in culture; settings: P. stuartii CMX 640, BHI agar, 35-37° C., 20 to 24 hours
[26] = test system: PSEUDOMONAS AERUGINOSA BMH10; experiment: In vitro antibacterial activity, agar dilution MIC; settings: P. aeruginosa BMH10, BHI agar, 35-37° C., 20 to 24 hours, read-out: MIC
[27] = test system: PSEUDOMONAS AERUGINOSA A5007; experiment: In vitro antibacterial activity, agar dilution MIC; settings: P. aeruginosa A5007, BHI agar, 35-37° C., 20 to 24 hours
[28] = test system: PSEUDOMONAS AERUGINOSA K799/WT; experiment: In vitro antibacterial activity, agar dilution MIC; settings: P. aeruginosa K799/WT, BHI agar, 35-37° C., 20 to 24 hours
[29] = test system: PSEUDOMONAS CEPACIA 296I; experiment: In vitro antibacterial activity, agar dilution MIC; settings: Burkholderia cepacia
[30] = test system: ACINETOBACTER CALCOACETICUS CMX 669; experiment: In vitro antibacterial activity, agar dilution MIC; settings: A. calcoaceticus CMX 669, BHI agar, 35-37° C., 20 to 24 hours

SMILES | MIC [1] [µg/mL] | MIC [2] [µg/mL] | MIC [3] [µg/mL] | MIC [4] [µg/mL] | MIC [5] [µg/mL] | MIC [6] [µg/mL] | MIC [9] [µg/mL] | MIC [10] [µg/mL] | MIC [11] [µg/mL] | MIC [14] [µg/mL] | MIC [15] [µg/mL] | MIC [20] [µg/mL] | MIC [23] [µg/mL] | MIC [24] [µg/mL] | MIC [25] [µg/mL] | MIC [26] [µg/mL] | MIC [27] [µg/mL] | MIC [28] [µg/mL] | MIC [30] [µg/mL] | other results
CC[C@H]1OC(=O)[C@H](C)[C@@H](O[C@H]2C[C@@](C)(OC)[C@@H](O)[C@H](C)O2)[C@H](C)[C@@H](O[C@@H]2O[C@H](C)C[C@H](N(C)C)[C@H]2O)[C@](C)(O)C[C@@H](C)[C@@H](N(C)C)[C@H](C)[C@@H](O)[C@@]1(O)CN(C)Cc1ccccc1 [Compound 16, (9R)-21-(N-benzyl-N-methylamino)-9-deoxo-9-(N,N-dimethylamino)-erythromycinA] | 12.5 (≈ 14.2 µM) | > 100 | 6.2 (≈ 7.03 µM) | 3.1 (≈ 3.51 µM) | 12.5 (≈ 14.2 µM) | 12.5 (≈ 14.2 µM) | 3.1 (≈ 3.51 µM) | 0.39 (≈ 0.442 µM) | 6.2 (≈ 7.03 µM) | 0.1 (≈ 0.113 µM) | 0.39 (≈ 0.442 µM) | 1.56 (≈ 1.77 µM) | 100 (≈ 113 µM) | > 100 | 100 (≈ 113 µM) | > 100 | 100 (≈ 113 µM) | > 100 | > 100 | MIC ([7]; 24 h): 12.5 µg/mL (≈ 14.2 µM); MIC ([8]; S. epidermidis 3519, BHI agar, 35-37° C., 20 to 24 hours, read-out: MIC): > 100 µg/mL; MIC ([12]; 24 h): > 100 µg/mL; MIC ([13]; S. bovis A5169, BHI agar, 35-37° C., 20 to 24 hours, read-out: MIC): 1.56 µg/mL (≈ 1.77 µM); MIC ([16]; 24 h): 0.78 µg/mL (≈ 0.884 µM); MIC ([17]; S. pyogenes 2548 INDUC, BHI agar, 35-37° C., 20 to 24 hours, read-out: MIC): 50 µg/mL (≈ 56.7 µM); MIC ([18]; 24 h): 12.5 µg/mL (≈ 14.2 µM); MIC ([19]; E. coli SS, BHI agar, 35-37° C., 20 to 24 hours, read-out: MIC): 100 µg/mL (≈ 113 µM); MIC ([21]; E. coli H560, BHI agar, 35-37° C., 20 to 24 hours, read-out: MIC): 100 µg/mL (≈ 113 µM); MIC ([22]; 24 h): 50 µg/mL (≈ 56.7 µM); MIC ([29]; 24 h): 12.5 µg/mL (≈ 14.2 µM)
CC[C@H]1OC(=O)[C@H](C)[C@@H](O[C@H]2C[C@@](C)(OC)[C@@H](O)[C@H](C)O2)[C@H](C)[C@@H](O[C@@H]2O[C@H](C)C[C@H](N(C)C)[C@H]2O)[C@](C)(O)C[C@@H](C)[C@@H](N(C)C)[C@H](C)[C@@H](O)[C@H]1CO [Compound 11, (9R)-9-deoxo-9-(N,N-dimethylamino)-21-hydroxyerythromycin B] | 6.2 (≈ 8.13 µM) | 100 (≈ 131 µM) | 6.2 (≈ 8.13 µM) | 6.2 (≈ 8.13 µM) | 6.2 (≈ 8.13 µM) | 6.2 (≈ 8.13 µM) | 1.56 (≈ 2.04 µM) | 0.78 (≈ 1.02 µM) | 0.78 (≈ 1.02 µM) | 0.78 (≈ 1.02 µM) | 0.39 (≈ 0.511 µM) | > 100 | > 100 | > 100 | > 100 | > 100 | > 100 | > 100 | > 100 | MIC ([7]; S. aureus 1775, BHI agar, 35-37° C., 20 to 24 hours, read-out: MIC): > 100 µg/mL; MIC ([8]; 24 h): 6.2 µg/mL (≈ 8.13 µM); MIC ([12]; P. aeruginosa K799/61, BHI agar, 35-37° C., 20 to 24 hours, read-out: MIC): 12.5 µg/mL (≈ 16.4 µM); MIC ([13]; 24 h): 0.78 µg/mL (≈ 1.02 µM); MIC ([16]; S. pyogenes 930 CONST, BHI agar, 35-37° C., 20 to 24 hours, read-out: MIC): > 100 µg/mL; MIC ([17]; 24 h): 50 µg/mL (≈ 65.5 µM); MIC ([18]; E. coli JUHL, BHI agar, 35-37° C., 20 to 24 hours, read-out: MIC): > 100 µg/mL; MIC ([19]; 24 h): 0.39 µg/mL (≈ 0.511 µM); MIC ([21]; 24 h): 50 µg/mL (≈ 65.5 µM); MIC ([22]; E. coli KNK 437, BHI agar, 35-37° C., 20 to 24 hours): > 100 µg/mL; MIC ([29]; P. cepacia 296I, BHI agar, 35-37° C., 20 to 24 hours, read-out: MIC): > 100 µg/mL
